Measurements as given in patent US11505536B2, “Dihydroorotate dehydrogenase inhibitors” (Janssen Biotech, Inc., priority 2019, dated 2022).
pIC50: −log10 of the molar value.

Key:
[1] = system: MOLM-13 cells (human acute myeloid leukemia cells); assay: MOLM-13 Cellular Assay; type: cell-based; conditions: 72 hours exposure, cell viability by CellTiter-Glo
How it was run: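 MOLM-13 AML cells, seeded at 5,000/well in RPMI 1640 with 10% FBS, were treated with compounds right after seeding for 72 h at 37 °C, 5% CO2. Viability read by CellTiter-Glo luminescence.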

[2] = molecular target: human DHODH (Homo sapiens (Human), UniProt Q02127); assay: DHODH Enzymatic Assay; type: biochemical; conditions: purified human DHODH, DCIP absorbance, end-point mode; read-out: hDHODH IC50
How it was run: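 Purified human DHODH in […] HEPES pH 7.5, 150 mM NaCl, 0.5 mM EDTA, 0.1% Triton X-100; reaction started with substrate mix of 20 mM DHO, 5 mM CoQ6, 1 mM DCIP. End-point read as DCIP reduction (absorbance ~600 nm) after brequinar quench.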

Sequence of human DHODH (Q02127 whole entry): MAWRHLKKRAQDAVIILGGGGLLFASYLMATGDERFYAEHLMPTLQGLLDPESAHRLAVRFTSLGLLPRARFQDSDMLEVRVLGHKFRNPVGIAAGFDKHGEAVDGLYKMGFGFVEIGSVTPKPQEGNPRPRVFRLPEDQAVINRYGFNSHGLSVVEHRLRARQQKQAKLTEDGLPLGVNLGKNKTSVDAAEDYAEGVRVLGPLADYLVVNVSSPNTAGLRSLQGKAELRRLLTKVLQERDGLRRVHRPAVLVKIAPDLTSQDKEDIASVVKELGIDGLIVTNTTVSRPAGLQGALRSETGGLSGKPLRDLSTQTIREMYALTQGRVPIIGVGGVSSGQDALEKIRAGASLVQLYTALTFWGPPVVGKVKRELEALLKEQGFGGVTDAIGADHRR

Row | Compound | pIC50 ([1]; Homo sapiens, MOLM-13, 72 h) | pIC50 [2] | pIC50 [1]
1 | CCc1ccccc1-n1cc(C(C)C)c2cc(-n3nc(CO)n(CC)c3=O)c(F)cc2c1=O [Example 89, 6-(4-Ethyl-3-(hydroxymethyl)-5-oxo-4,5-dihydro-1H-1,2,4-triazol-1-yl)-2-(2-ethylphenyl)-7-fluoro-4-isopropylisoquinolin-1(2H)-one] | 8.70 | 8.92 | –
2 | CCn1c(CO)nn(-c2cc3c(C(C)C)cn(-c4cc(OC)ncc4F)c(=O)c3cc2F)c1=O [Example 91, 6-(4-Ethyl-3-(hydroxymethyl)-5-oxo-4,5-dihydro-1H-1,2,4-triazol-1-yl)-7-fluoro-2-(5-fluoro-2-methoxypyridin-4-yl)-4-isopropylisoquinolin-1(2H)-one] | 7.52 | 8.22 | –
3 | [2H]C([2H])([2H])c1ccccc1-n1cc(C(C)C)c2cc(-n3nc(CO)n(CC)c3=O)c(F)cc2c1=O [Example 93, 6-(4-Ethyl-3-(hydroxymethyl)-5-oxo-4,5-dihydro-1H-1,2,4-triazol-1-yl)-7-fluoro-4-isopropyl-2-(2-(methyl-d3)phenyl)isoquinolin-1(2H)-one] | 9.22 | 9.33 | –
4 | CCn1c(CO)nn(-c2cc3c(C(C)C)cn(-c4cncnc4C)c(=O)c3cc2F)c1=O [Example 94, 6-(4-Ethyl-3-(hydroxymethyl)-5-oxo-4,5-dihydro-1H-1,2,4-triazol-1-yl)-7-fluoro-4-isopropyl-2-(4-methylpyrimidin-5-yl)isoquinolin-1(2H)-one] | < 7.00 | 6.25 | –
5 | CCn1c(CO)nn(-c2cc3c(C(C)C)cn(-c4ccccc4OC)c(=O)c3cc2F)c1=O [Example 95, 6-(4-Ethyl-3-(hydroxymethyl)-5-oxo-4,5-dihydro-1H-1,2,4-triazol-1-yl)-7-fluoro-4-isopropyl-2-(2-methoxyphenyl)isoquinolin-1(2H)-one] | 9.00 | 9.11 | –
6 | CCn1c(CO)nn(-c2cc3c(C(C)C)cn(-c4nc(OC)ccc4F)c(=O)c3cc2F)c1=O [Example 96, 6-(4-Ethyl-3-(hydroxymethyl)-5-oxo-4,5-dihydro-1H-1,2,4-triazol-1-yl)-7-fluoro-2-(3-fluoro-6-methoxypyridin-2-yl)-4-isopropylisoquinolin-1(2H)-one] | 8.05 | 8.21 | –
7 | CCn1c(CO)nn(-c2cc3c(C(C)C)cn(-c4nccnc4C)c(=O)c3cc2F)c1=O [Example 97, 6-(4-Ethyl-3-(hydroxymethyl)-5-oxo-4,5-dihydro-1H-1,2,4-triazol-1-yl)-7-fluoro-4-isopropyl-2-(3-methylpyrazin-2-yl)isoquinolin-1(2H)-one] | < 7.00 | < 5.00 | –
8 | CCn1c(CO)nn(-c2cc3c(C(C)C)cn(-c4cc(C)cnc4Cl)c(=O)c3cc2F)c1=O [Example 98, 2-(2-Chloro-5-methylpyridin-3-yl)-6-(4-ethyl-3-(hydroxymethyl)-5-oxo-4,5-dihydro-1H-1,2,4-triazol-1-yl)-7-fluoro-4-isopropylisoquinolin-1(2H)-one] | 7.30 | 8.20 | –
9 | CCn1c(CO)nn(-c2nc3c(C(C)C)cn(-c4cc(C)ccc4F)c(=O)c3cc2F)c1=O [Example 99, 2-(4-Ethyl-3-(hydroxymethyl)-5-oxo-4,5-dihydro-1H-1,2,4-triazol-1-yl)-3-fluoro-6-(2-fluoro-5-methylphenyl)-8-isopropyl-1,6-naphthyridin-5(6H)-one] | 8.15 | 8.21 | –
10 | CCn1c(CO)nn(-c2cc3c(C(C)C)cn(-c4nnccc4C)c(=O)c3cc2F)c1=O [Example 100, 6-(4-Ethyl-3-(hydroxymethyl)-5-oxo-4,5-dihydro-1H-1,2,4-triazol-1-yl)-7-fluoro 4-isopropyl-2-(4-methylpyridazin-3-yl)isoquinolin-1(2H)-one] | < 7.00 | 7.15 | –
11 | CCn1c(CO)nn(-c2cc3c([C@H](C)C(F)(F)F)cn(-c4ccccc4C)c(=O)c3cc2F)c1=O [Example 101, (S)-6-(4-Ethyl-3-(hydroxymethyl)-5-oxo-4,5-dihydro-1H-1,2,4-triazol-1-yl)-7-fluoro-2-(o-tolyl)-4-(1,1,1-trifluoropropan-2-yl)isoquinolin-1(2H)-one] | 9.40 | 8.92 | –
12 | CCn1c(CO)nn(-c2cc3c([C@@H](C)C(F)(F)F)cn(-c4ccccc4C)c(=O)c3cc2F)c1=O [Example 102, (R)-6-(4-Ethyl-3-(hydroxymethyl)-5-oxo-4,5-dihydro-1H-1,2,4-triazol-1-yl)-7-fluoro-2-(o-tolyl)-4-(1,1,1-trifluoropropan-2-yl)isoquinolin-1(2H)-one] | 9.52 | 9.59 | –
13 | CCn1c(CO)nn(-c2cc3c(C(C)C)cn(-c4ccccc4C(F)(F)F)c(=O)c3cc2F)c1=O [Example 103, 6-(4-Ethyl-3-(hydroxymethyl)-5-oxo-4,5-dihydro-1H-1,2,4-triazol-1-yl)-7-fluoro-4-isopropyl-2-(2-(trifluoromethyl)phenyl)isoquinolin-1(2H)-one] | 9.52 | 9.17 | –
14 | CCn1c(CO)nn(-c2cc3c(C(C)C)cn(-c4ncncc4C)c(=O)c3cc2F)c1=O [Example 104, 6-(4-Ethyl-3-(hydroxymethyl)-5-oxo-4,5-dihydro-1H-1,2,4-triazol-1-yl)-7-fluoro-4-isopropyl-2-(5-methylpyrimidin-4-yl)isoquinolin-1(2H)-one] | < 7.00 | 7.36 | –
15 | CCn1c(CO)nn(-c2cc3c(C(C)C)cn(-c4ccccc4C(F)F)c(=O)c3cc2F)c1=O [Example 105, 2-(2-(Difluoromethyl)phenyl)-6-(4-ethyl-3-(hydroxymethyl)-5-oxo-4,5-dihydro-1H-1,2,4-triazol-1-yl)-7-fluoro-4-isopropylisoquinolin-1(2H)-one] | ≥ 9.70 | 9.28 | 9.70
16 | CCn1c(CO)nn(-c2cc3c(C(C)C)cn(-c4ccnc(OC)c4Cl)c(=O)c3cc2F)c1=O [Example 106, 2-(3-Chloro-2-methoxypyridin-4-yl)-6-(4-ethyl-3-(hydroxymethyl)-5-oxo-4,5-dihydro-1H-1,2,4-triazol-1-yl)-7-fluoro-4-isopropylisoquinolin-1(2H)-one] | 8.00 | 8.31 | –
17 | CCn1c(CO)nn(-c2cc3c(C(C)C)cn(C4CCCCC4)c(=O)c3cc2F)c1=O [Example 107, 2-Cyclohexyl-6-(4-ethyl-3-(hydroxymethyl)-5-oxo-4,5-dihydro-1H-1,2,4-triazol-1-yl)-7-fluoro-4-isopropylisoquinolin-1(2H)-one] | 8.22 | 8.68 | –
18 | CCn1c(CO)nn(-c2cc3c(C(C)C)cn(-c4nc(C)ccc4Cl)c(=O)c3cc2F)c1=O [Example 108, 2-(3-Chloro-6-methylpyridin-2-yl)-6-(4-ethyl-3-(hydroxymethyl)-5-oxo-4,5-dihydro-1H-1,2,4-triazol-1-yl)-7-fluoro-4-isopropylisoquinolin-1(2H)-one] | 8.22 | 8.51 | –
19 | CCn1c(CO)nn(-c2cc3c(C(C)C)cn(C4CCCC4)c(=O)c3cc2F)c1=O [Example 109, 2-Cyclopentyl-6-(4-ethyl-3-(hydroxymethyl)-5-oxo-4,5-dihydro-1H-1,2,4-triazol-1-yl)-7-fluoro-4-isopropylisoquinolin-1(2H)-one] | 8.05 | 8.27 | –
20 | CCn1c(CO)nn(-c2cc3c(C(C)C)cn(-c4nccc(OC)c4Cl)c(=O)c3cc2F)c1=O [Example 110, 2-(3-Chloro-4-methoxypyridin-2-yl)-6-(4-ethyl-3-(hydroxymethyl)-5-oxo-4,5-dihydro-1H-1,2,4-triazol-1-yl)-7-fluoro-4-isopropylisoquinolin-1(2H)-one] | 7.70 | 7.98 | –
21 | CCn1c(CO)nn(-c2cc3c(C(C)C)cn([C@@H]4CCCC[C@@H]4C)c(=O)c3cc2F)c1=O [Example 111, 6-(4-Ethyl-3-(hydroxymethyl)-5-oxo-4,5-dihydro-1H-1,2,4-triazol-1-yl)-7-fluoro-4-isopropyl-2-((1R,2S)-2-methylcyclohexyl)isoquinolin-1(2H)-one] | 9.15 | 8.45 | –
22 | CCn1c(CO)nn(-c2cc3c(C(C)C)cn(C(COC)COC)c(=O)c3cc2F)c1=O [Example 112, 2-(1,3-Dimethoxypropan-2-yl)-6-(4-ethyl-3-(hydroxymethyl)-5-oxo-4,5-dihydro-1H-1,2,4-triazol-1-yl)-7-fluoro-4-isopropylisoquinolin-1(2H)-one] | 7.52 | 7.45 | –
23 | CCn1c(CO)nn(-c2cc3c(C(C)C)cn(-c4cc(OC)ncc4C)c(=O)c3cc2F)c1=O [Example 113, 6-(4-Ethyl-3-(hydroxymethyl)-5-oxo-4,5-dihydro-1H-1,2,4-triazol-1-yl)-7-fluoro-4-isopropyl-2-(2-methoxy-5-methylpyridin-4-yl)isoquinolin-1(2H)-one] | 8.52 | 8.68 | –
24 | CCn1c(CO)nn(-c2cc3c(C(C)C)cn([C@H]4CCCC[C@H]4C)c(=O)c3cc2F)c1=O [Example 114, 6-(4-Ethyl-3-(hydroxymethyl)-5-oxo-4,5-dihydro-1H-1,2,4-triazol-1-yl)-7-fluoro-4-isopropyl-2-((1S,2R)-2-methylcyclohexyl)isoquinolin-1(2H)-one] | 8.52 | 7.94 | –
25 | CCn1c(CO)nn(-c2cc3c(C(C)C)cn(CC4CC4)c(=O)c3cc2F)c1=O [Example 115, 2-(Cyclopropylmethyl)-6-(4-ethyl-3-(hydroxymethyl)-5-oxo-4,5-dihydro-1H-1,2,4-triazol-1-yl)-7-fluoro-4-isopropylisoquinolin-1(2H)-one] | 7.10 | 7.29 | –
